Reference: ChEMBL document CHEMBL1201862, “PubChem BioAssay data set” (2004)
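Values below derive from 48-hour exposures of cells grown in 96-well plates, with endpoints linearly interpolated between the two concentrations bracketing the appropriate inhibition level. Here, GI50 denotes the concentration required for 50% inhibition of growth.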 Calls of active or inactive are those of the source. Rule as the data show it: active = GI50 up to about 1.1 µM and inactive = higher.

Assays:
Experiment in all cases: NCI-60 cell line screen, 48 h
[1] = tested on: DMS-114
[2] = tested on: DMS-273
[3] = tested on: HOP-18
[4] = tested on: KM-20L2
[5] = tested on: LXFL 529
[6] = tested on: M19-MEL
[7] = tested on: RXF 631
[8] = tested on: SNB-78
[9] = tested on: BT-549

Structure (SMILES)	GI50 [1]	GI50 [2]	GI50 [3]	GI50 [4]	GI50 [5]	GI50 [6]	GI50 [7]	GI50 [8]	GI50 [9]
CCOC(=O)C1=C(C)N(c2ccccc2)C2=C(C(=O)N(c3ccccc3)C2c2ccccc2)C1c1ccccc1 (configuration not stated)	> 100 µM (inactive)	> 100 µM (inactive)	> 100 µM (inactive)	> 100 µM (inactive)	> 100 µM (inactive)	> 100 µM (inactive)	> 100 µM (inactive)	> 100 µM (inactive)	
O=C(Nc1ccc(Nc2ccc(NC(=O)c3ccccc3)c3c2C(=O)c2ccccc2C3=O)c2c1C(=O)c1ccccc1C2=O)c1ccccc1	> 100 µM (inactive)	> 100 µM (inactive)	> 100 µM (inactive)	> 100 µM (inactive)	> 100 µM (inactive)	> 100 µM (inactive)	> 100 µM (inactive)	> 100 µM (inactive)	
COc1ccccc1/C=C1\CCC(Cc2ccccc2)(CN(C)C)C1=O (configuration not stated)	2.23 µM (inactive)	0.294 µM (active)	> 26.4 µM (inactive)	0.644 µM (active)	4.55 µM (inactive)	2.98 µM (inactive)	1.85 µM (inactive)	2.13 µM (inactive)	5 µM (inactive)
CCOC1(COP(=O)(OCc2ccccc2)OCc2ccccc2)COC(COP(=O)(OCc2ccccc2)OCc2ccccc2)(OCC)CO1 (configuration not stated)		> 100 µM (inactive)	> 100 µM (inactive)	> 100 µM (inactive)	> 100 µM (inactive)	15.5 µM (inactive)	9.44 µM (inactive)	> 100 µM (inactive)	
O=C(Nc1nc2ccc([N+](=O)[O-])cc2s1)C(=O)C(C(=O)c1ccncc1)C1OC(=O)c2ccccc21 (configuration not stated)	> 100 µM (inactive)	> 100 µM (inactive)	42.7 µM (inactive)	> 100 µM (inactive)	> 100 µM (inactive)	> 100 µM (inactive)	> 100 µM (inactive)	> 100 µM (inactive)	
CC(=O)C1CC=C(C)CC1 (configuration not stated)	> 100 µM (inactive)	> 100 µM (inactive)	> 100 µM (inactive)	> 100 µM (inactive)	> 100 µM (inactive)	> 100 µM (inactive)	> 100 µM (inactive)	> 100 µM (inactive)	
CC1=C(C(=O)Nc2ccccc2C)C(c2ccc([N+](=O)[O-])cc2)C(C(=O)Nc2ccccc2C)=C(C)N1	33.3 µM (inactive)	43.4 µM (inactive)	55.2 µM (inactive)	51.9 µM (inactive)	35.6 µM (inactive)	64.1 µM (inactive)	76.6 µM (inactive)		
COC(=O)C(C)(C)/N=C/N(C)C	> 100 µM (inactive)	> 100 µM (inactive)	> 100 µM (inactive)	> 100 µM (inactive)	> 100 µM (inactive)	> 100 µM (inactive)	> 100 µM (inactive)	> 100 µM (inactive)	
COc1cc([C@@H]2OC(=O)C3C2C(=O)O[C@H]3c2cc(OC)c(OC)c(OC)c2)cc(OC)c1OC (some centres not stated)	> 100 µM (inactive)	> 100 µM (inactive)	> 100 µM (inactive)	> 100 µM (inactive)		> 100 µM (inactive)	> 100 µM (inactive)	> 100 µM (inactive)	
COc1cccc(/C=C2\CCC(CN(C)C)C2=O)c1 (configuration not stated)	13.9 µM (inactive)	12.2 µM (inactive)	18.6 µM (inactive)	15.8 µM (inactive)	2.5 µM (inactive)	4.84 µM (inactive)	6.59 µM (inactive)	21.7 µM (inactive)	3.91 µM (inactive)
CCN(CC)CCOC(=O)/C(=C/c1ccc(OC)cc1)c1cc(OC)c(OC)c(OC)c1	4.81 µM (inactive)	4.29 µM (inactive)	30.4 µM (inactive)	11.9 µM (inactive)	5.45 µM (inactive)	7.26 µM (inactive)	7.66 µM (inactive)	9.98 µM (inactive)	
